Results from patent US20170368082A1, “FORMULATIONS OF BRINCIDOFOVIR” (priority 2016, published 2017).
Read-outs that look alike come from different tables or passages of the source.

Experiment: Phase 2 toxicokinetics of brincidofovir and cidofovir in plasma
Type: in vivo, Sprague-Dawley CD rats
Conditions: for Cmax/Dose / Tlast / AUClast/Dose / AUC(0-t) / Cmax / Tmax: brincidofovir in plasma; for concentration at 1 h / concentration at 2 h / concentration at 8 h / concentration at 24 h / concentration at 0 h / AUC(0-t) / Cmax / Tmax: female, Sprague-Dawley CD, rat, plasma; for concentration at 1 h / concentration at 2 h / concentration at 8 h / concentration at 24 h / concentration at 0 h: intravenous; for AUC(0-t) / Cmax / Tmax: iv; for Tmax: read-out: Tmax
Procedure: Plasma samples (108) were collected 2 hours following the initiation of dosing on Day 1 and Day 7 (Group 1), or at 1, 2, 8, and 24 hours following the initiation of dosing on Day 1, and prior to administration and at 2, 8, and 24 hours following the initiation of dosing on Day 7 (Groups 2 and 3), and analyzed to determine the concentrations of brincidofovir and the metabolite, cidofovir), by LC/MS/MS.
Approximately 0.4 mL of whole blood was obtained via the tail vein from each animal at each time point. Animals were not fasted prior to blood collection. Blood was collected into tubes containing K2EDTA anticoagulant and placed on wet ice in an upright position, per facility SOP prior to processing. Plasma was separated by centrifugation (10 minutes at approximately 2000 g, at approximately 2-8° C.). Approximately 0.10 mL of plasma was transferred into a single cryotube appropriately labeled with study number, animal number, time point, date of sampling and sample type. Remaining plasma was transferred into a second cryotube and retained as a backup sample. Plasma frozen at approximately −80±10° C. within approximately 2 hours after collection of each blood sample until analysis. Animals were euthanized (CO2 inhalation) after the final blood collection.
In general, TK parameters were estimated using mean plasma concentrations of brincidofovir and cidofovir derived from the composite blood sampling design using Phoenix WinNonLin (V 6.3).
A composite blood sampling design was used such that each rat was sampled twice per sampling day. Blood was collected via tail vein from unanesthetized animals into tubes containing anticoagulant and placed on wet ice in an upright position. Animals were not fasted prior to blood collection. Plasma was separated by centrifugation (for 10 minutes at approximately 2000 g, at approximately 2-8° C.), and transferred into individually labeled cryotubes. All cryotubes containing the collected plasma samples were appropriately labeled as to study number, animal number, time point, date of sampling and sample type. All plasma samples were obtained and frozen at approximately −80° C. (±10° C.) within approximately 2 hours after collection of each blood sample until analysis.
Rat plasma bioanalysis was conducted by Pyxant Laboratories. Plasma samples were analyzed for concentrations of brincidofovir and cidofovir using a method based upon protein precipitation extraction followed by LC-MS/MS analysis; calibration ranges for brincidofovir and cidofovir were 1.00-1500 ng/mL and 5.00-750 ng/mL, respectively, (Pyxant study number 3025) for a 50 μL aliquot of rat plasma. Sample analysis for ISR was not performed as part of this non-GLP study.
For the generation of Mean Profiles, all sample concentrations that were below the limit of quantitation (BLQ) were set to 0.
All pharmacokinetic parameter estimates were completed using a Non-Compartmental Model (Model 200-202 for IV infusion administration). The AUClast and AUCinf were calculated using the linear up log down trapezoidal rule.

[1] = 1 mg/kg 2-hour IV infusion, Male rats, Day 1
[2] = 1 mg/kg 2-hour IV infusion, Male rats, Day 7
[3] = 15 mg/kg 2-hour IV infusion, Female rats, Day 1
[4] = 15 mg/kg 2-hour IV infusion, Female rats, Day 7
[5] = 15 mg/kg 2-hour IV infusion, Male rats, Day 1
[6] = 15 mg/kg 2-hour IV infusion, Male rats, Day 7
[7] = 1 mg/kg, 1 mg/kg 2-hour IV infusion, Female rats, Day 1
[8] = 1 mg/kg, 1 mg/kg 2-hour IV infusion, Female rats, Day 7

Structure (SMILES): CCCCCCCCCCCCCCCCOCCCOP(=O)(O)CO[C@H](CO)Cn1ccc(N)nc1=O [Brincidofovir]
- Cmax/Dose [1]: 235 (ng/mL)/(mg/kg)
- Tlast [1]: 2 h
- Cmax/Dose [2]: 208 (ng/mL)/(mg/kg)
- Tlast [2]: 2 h
- AUClast/Dose [3]: 491 (h*ng/mL)/(mg/kg)
- Cmax/Dose [3]: 231 (ng/mL)/(mg/kg)
- Tlast [3]: 24 h
- AUClast/Dose [4]: 228 (h*ng/mL)/(mg/kg)
- Cmax/Dose [4]: 110 (ng/mL)/(mg/kg)
- Tlast [4]: 24 h
- AUClast/Dose [5]: 585 (h*ng/mL)/(mg/kg)
- Cmax/Dose [5]: 291 (ng/mL)/(mg/kg)
- Tlast [5]: 24 h
- AUClast/Dose [6]: 273 (h*ng/mL)/(mg/kg)
- Cmax/Dose [6]: 127 (ng/mL)/(mg/kg)
- Tlast [6]: 24 h
- concentration at 1 h (1 mg/kg, brincidofovir 1 mg/kg, Female, Day 1, 1 h, read-out: brincidofovir Imputed Mean Concentration (IMC)): 137 ng/mL
- concentration at 1 h (1 mg/kg, brincidofovir 1 mg/kg, Female, Day 1, 1 h, read-out: brincidofovir Mean Concentration (MC)): 137 ng/mL
- concentration at 2 h (1 mg/kg, brincidofovir 1 mg/kg, Female, Day 1, 2 h, read-out: brincidofovir Imputed Mean Concentration (IMC)): 191 ng/mL
- concentration at 2 h (1 mg/kg, brincidofovir 1 mg/kg, Female, Day 1, 2 h, read-out: brincidofovir Mean Concentration (MC)): 191 ng/mL
- concentration at 8 h (1 mg/kg, brincidofovir 1 mg/kg, Female, Day 1, 8 h, read-out: brincidofovir Imputed Mean Concentration (IMC)): 1.25 ng/mL
- concentration at 8 h (1 mg/kg, brincidofovir 1 mg/kg, Female, Day 1, 8 h, read-out: brincidofovir Mean Concentration (MC)): 1.25 ng/mL
- concentration at 24 h (1 mg/kg, brincidofovir 1 mg/kg, Female, Day 1, 24 h, read-out: brincidofovir Mean Concentration (MC)): 0 ng/mL
- concentration at 0 h (1 mg/kg, brincidofovir 1 mg/kg, Female, Day 7, 0 h, read-out: brincidofovir Imputed Mean Concentration (IMC)): 0 ng/mL
- concentration at 0 h (1 mg/kg, brincidofovir 1 mg/kg, Female, Day 7, 0 h, read-out: brincidofovir Mean Concentration (MC)): 0 ng/mL
- concentration at 2 h (1 mg/kg, brincidofovir 1 mg/kg, Female, Day 7, 2 h, read-out: brincidofovir Imputed Mean Concentration (IMC)): 95.4 ng/mL
- concentration at 2 h (1 mg/kg, brincidofovir 1 mg/kg, Female, Day 7, 2 h, read-out: brincidofovir Mean Concentration (MC)): 95.4 ng/mL
- concentration at 8 h (1 mg/kg, brincidofovir 1 mg/kg, Female, Day 7, 8 h, read-out: brincidofovir Imputed Mean Concentration (IMC)): 2.19 ng/mL
- concentration at 8 h (1 mg/kg, brincidofovir 1 mg/kg, Female, Day 7, 8 h, read-out: brincidofovir Mean Concentration (MC)): 2.19 ng/mL
- concentration at 1 h (1 mg/kg, brincidofovir 1 mg/kg 2-h IV infusion, female rats, Day 1, 1 h, BLQ imputed as zero, read-out: Imputed Concentration, Mean): 137 ng/mL
- concentration at 1 h (1 mg/kg, brincidofovir 1 mg/kg 2-h IV infusion, female rats, Day 1, 1 h, BLQ imputed as zero, read-out: Imputed Concentration, individual animals): 109 ng/mL
- concentration at 2 h (1 mg/kg, brincidofovir 1 mg/kg 2-h IV infusion, female rats, Day 1, 2 h, BLQ imputed as zero, read-out: Imputed Concentration, Mean): 191 ng/mL
- concentration at 2 h (1 mg/kg, brincidofovir 1 mg/kg 2-h IV infusion, female rats, Day 1, 2 h, BLQ imputed as zero, read-out: Imputed Concentration, individual animals): 253 ng/mL
- concentration at 8 h (1 mg/kg, brincidofovir 1 mg/kg 2-h IV infusion, female rats, Day 1, 8 h, BLQ imputed as zero, read-out: Imputed Concentration, Mean): 1.25 ng/mL
- concentration at 24 h (1 mg/kg, brincidofovir 1 mg/kg 2-h IV infusion, female rats, Day 1, 24 h, BLQ imputed as zero, read-out: Imputed Concentration, Mean): 0 ng/mL
- concentration at 24 h (1 mg/kg, brincidofovir 1 mg/kg 2-h IV infusion, female rats, Day 1, 24 h, BLQ imputed as zero, read-out: Imputed Concentration, individual animals): 0 ng/mL
- concentration at 0 h (1 mg/kg, brincidofovir 1 mg/kg 2-h IV infusion, female rats, Day 7, 0 h, BLQ imputed as zero, read-out: Imputed Concentration, individual animals): 0 ng/mL
- concentration at 2 h (15 mg/kg, 15 mg/kg, female rats, Day 1, 2 h, read-out: IC (Imputed Concentration), individual animals): 2460 ng/mL
- concentration at 8 h (15 mg/kg, 15 mg/kg, female rats, Day 1, 8 h, read-out: C (Concentration), individual animals): 5.05 ng/mL
- concentration at 8 h (15 mg/kg, 15 mg/kg, female rats, Day 1, 8 h, read-out: IC (Imputed Concentration), individual animals): 5.05 ng/mL
- concentration at 24 h (15 mg/kg, 15 mg/kg, female rats, Day 1, 24 h, read-out: C (Concentration), individual animals): 2.32 ng/mL
- concentration at 24 h (15 mg/kg, 15 mg/kg, female rats, Day 1, 24 h, read-out: IC (Imputed Concentration), individual animals): 2.32 ng/mL
- concentration at 8 h (15 mg/kg, 15 mg/kg, female rats, Day 7, 8 h, read-out: C (Concentration), individual animals): 5.32 ng/mL
- concentration at 8 h (15 mg/kg, 15 mg/kg, female rats, Day 7, 8 h, read-out: IC (Imputed Concentration), individual animals): 5.32 ng/mL
- concentration at 24 h (15 mg/kg, 15 mg/kg, female rats, Day 7, 24 h, read-out: C (Concentration), individual animals): 2.37 ng/mL
- AUC(0-t) [7]: 459 ng·h/mL
- Cmax [7]: 191 ng/mL
- Tmax [7]: 2 h
- AUC(0-t) [8]: 244 ng·h/mL
- Cmax [8]: 95.4 ng/mL
- Tmax [8]: 2 h
